Data published in patent US10414754B2, “Indolizine compounds, a process for their preparation and pharmaceutical compositions containing them” (LES LABORATOIRES SERVIER, priority 2013, dated 2019).
Counter-ions that a name gives are not always drawn.

How the values were obtained:
Bcl-2 protein = molecular target: T1, Bcl-2 protein (histag-Bcl-2, UniProtKB P10415) (Homo sapiens, UniProt P10415); test: Inhibition of Bcl-2 by the fluorescence polarisation technique; type: binding; conditions: for IC50: fluorescence polarisation, 2 hours incubation, read-out: IC50 (nM) Bcl-2 FP
T1 construct: His tag
Method: The fluorescence polarisation tests were carried out on microplates (384 wells). The Bcl-2 protein, labelled (histag-Bcl-2 such that Bcl-2 corresponds to the UniProtKB® primary accession number: P10415), at a final concentration of 2.50×10^−8 M, is mixed with a fluorescent peptide (Fluorescein-[…]), at a final concentration of 1.00×10^−8M in a buffer solution (Hepes 10 mM, NaCl 150 mM, Tween20 0.05%, pH 7.4), in the presence or absence of increasing concentrations of test compounds. After incubation for 2 hours, the fluorescence polarisation is measured.

[1] = system: RS4;11 leukaemia tumour line; test: In vitro cytotoxicity (MTT) on RS4;11; type: cell-based; conditions: RS4;11 cells, 48 hours exposure
Method: The cytotoxicity studies were carried out on the RS4;11 leukaemia tumour line.
The cells are distributed onto microplates and exposed to the test compounds for 48 hours.
The cell viability is then quantified by a colorimetric assay, the Microculture Tetrazolium Assay (Cancer Res., 1987, 47, 939-942).

T1 sequence (P10415 whole entry): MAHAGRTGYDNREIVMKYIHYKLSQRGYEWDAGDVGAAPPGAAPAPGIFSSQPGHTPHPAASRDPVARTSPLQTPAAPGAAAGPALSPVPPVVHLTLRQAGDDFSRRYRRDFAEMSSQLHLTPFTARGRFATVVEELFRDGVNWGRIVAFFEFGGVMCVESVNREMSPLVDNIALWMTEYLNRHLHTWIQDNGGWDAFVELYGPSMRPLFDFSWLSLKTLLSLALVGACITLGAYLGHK

Structure (SMILES)	IC50 (Bcl-2 protein)	percentage fluorescence polarisation inhibition (partial inhibitors), Bcl-2 FP (Bcl-2 protein; @ 10 μM test compound)	IC50 ([1]; Homo sapiens)	IC50 [1]
CCCCN(CCCC)C(=O)c1cc(-c2cc3c(cc2C(=O)N2Cc4ccccc4C[C@H]2C)OCO3)n2c1CNCC2 [Example 78, N,N-Dibutyl-6-(6-{[(3R)-3-methyl-3,4-dihydroisoquinolin-2(1H)-yl]-carbonyl}-1,3-benzodioxol-5-yl)-1,2,3,4-tetrahydropyrrolo[1,2-a]pyrazine-8-carboxamide]	823 nM	–	1880 nM	–
C[C@@H]1Cc2ccccc2CN1C(=O)c1cc2c(cc1-c1cc(C(=O)N(c3ccc(O)cc3)c3cnc4ccnn4c3)c3ccccn13)OCO2 [Example 59, N-(4-Hydroxyphenyl)-3-(6-{[(3R)-3-methyl-3,4-dihydroisoquinolin-2(1H)-yl]carbonyl}-1,3-benzodiaxol-5-yl)-N-(pyrazolo[1,5-a]pyrimidin-6-yl)indolizine-1-carboxamide]	4 nM	–	21.2 nM	–
C[C@H]1Cc2ccccc2CN1C(=O)c1cc2c(cc1-c1cc(C(=O)N(C)c3ccc(O)cc3)c3n1CCCC3)OCO2 [Example 82, N-(4-Hydroxyphenyl)-N-methyl-3-(6-{[(3S)-3-methyl-3,4-dihydroiso-quinolin-2(1H)-yl]carbonyl}-1,3-benzodioxol-5-yl)-5,6,7,8-tetrahydroindolizine-1-carboxamide]	–	42% @ 10 μM	–	1880 nM
C[C@@H]1Cc2ccccc2CN1C(=O)c1cc2c(cc1-c1cc(C(=O)N(c3ccccc3)c3ccc(O)cc3)c3n1CCC(N)C3)OCO2 (stereo partly drawn) [Example 15, 7-Amino-N-(4-hydroxyphenyl)-3-(6-{[(3R)-3-methyl-3,4-dihydroiso-quinolin-2(1H)-yl]carbonyl}-1,3-benzodioxol-5-yl)-N-phenyl-5,6,7,8-tetrahydro-indolizine-1-carboxamide hydrochloride]	5.7 nM	–	166 nM	–
C[C@@H]1Cc2ccccc2CN1C(=O)c1cc2c(cc1-c1cc(C(=O)N(c3ccc(O)cc3)c3cnn(C)c3)c3n1CCCC3)OCCO2 [Example 48, N-(4-Hydroxyphenyl)-3-(7-{[(3R)-3-methyl-3,4-dihydroisoquinolin-2(1H)-yl]carbonyl}-2,3-dihydro-1,4-benzodioxin-6-yl)-N-(1-methyl-1H-pyrazol-4-yl)-5,6,7,8-tetrahydroindolizine-1-carboxamide]	3.6 nM	–	24.7 nM	–
CC[C@@H]1Cc2ccccc2CN1C(=O)c1ccc(Cl)cc1-c1cc(C(=O)N(c2ccc(O)cc2)c2cnc3c(ccn3C)c2)c2ccccn12 [Example 50, 3-(5-Chloro-2-{[(3R)-3-ethyl-3,4-dihydroisoquinolin-2(1H)-yl]-carbonyl}phenyl)-N-(4-hydroxyphenyl)-N-(1-methyl-1H-pyrrolo[2,3-b]pyridin-5-yl)indolizine-1-carboxamide]	2.2 nM	–	28.2 nM	–
COc1cc(N(C(=O)c2cc(-c3cc4c(cc3C(=O)N3Cc5ccccc5C[C@H]3C)OCO4)n3ccccc23)c2ccc(O)cc2)ccn1 [Example 56, N-(4-Hydroxyphenyl)-N-(2-methoxypyridin-4-yl)-3-(6-{[(3R)-3-methyl-3,4-dihydroisoquinolin-2(1H)-yl]carbonyl}-1,3-benzodioxol-5-yl)indolizine-1-carboxamide]	4.7 nM	–	36.7 nM	–
CCN(C(=O)c1cc(-c2cc3c(cc2C(=O)N2CCc4ccccc4C2)OCO3)n2c1CNCC2)c1ccc(O)cc1 [Example 85, 6-[6-(3,4-Dihydroisoquinolin-2(1H)-ylcarbonyl)-1,3-benzodioxol-5-yl]-N-ethyl-N-(4-hydroxyphenyl)-1,2,3,4-tetrahydropyrrolo[1,2-a]pyrazine-8-carboxamide]	243 nM	–	–	–
CN(C(=O)c1cc(-c2cc3c(cc2C(=O)N2CCc4ccccc4C2)OCO3)n2c1CNCC2)c1ccc(O)cc1 [Example 84, 6-[6-(3,4-Dihydroisoquinolin-2(1H)-ylcarbonyl)-1,3-benzodioxol-5-yl]-N-(4-hydroxyphenyl)-N-methyl-1,2,3,4-tetrahydropyrrolo[1,2-a]pyrazine-8-carboxamide]	525 nM	–	–	–
C[C@@H]1Cc2ccccc2CN1C(=O)c1cc2c(cc1-c1cc(C(=O)N(c3ccc(O)cc3)c3cc[n+](C)cc3)c3ccccn13)OCO2 [Example 71, 4-[(4-Hydroxyphenyl){[3-(6-{[(3R)-3-methyl-3,4-dihydroisoquinolin-2(1H)-yl]carbonyl}-1,3-benzodioxol-5-yl)indolizin-1-yl]carbonyl}amino]-1-methyl-pyridinium chloride]	49 nM	–	–	–

Now from value to compound, other results behind:

IC50 (Bcl-2 protein)	percentage fluorescence polarisation inhibition (partial inhibitors), Bcl-2 FP (Bcl-2 protein; @ 10 μM test compound)	Structure (SMILES)	IC50 ([1]; Homo sapiens)	IC50 [1]
10.9 nM	–	C[C@@H]1Cc2ccccc2CN1C(=O)c1cc2c(cc1-c1cc(C(=O)N(c3ccc(O)cc3)c3ccc4c(cnn4C)c3)c3n1CCNC3)OCO2 [Example 11, N-(4-Hydroxyphenyl)-6-(6-{[(3R)-3-methyl-3,4-dihydroisoquinolin-2(1,H)-yl]carbonyl}-1,3-benzodioxol-5-yl)-N-(1-methyl-1H-indazol-5-yl)-1,2,3,4-tetrahydropyrrolo[1,2-a]pyrazine-8-carboxamide hydrochloride]	83.7 nM	–
4.6 nM	–	C[C@@H]1Cc2ccccc2CN1C(=O)c1cc2c(cc1-c1cc(C(=O)N(c3ccncc3)c3ccc(O)cc3)c3ccccn13)OCO2 [Example 21, N-(4-Hydroxyphenyl)-3-(6-{[(3R)-3-methyl-3,4-dihydroisoquinolin-2(1H)-yl]carbonyl}-1,3-benzodioxol-5-yl)-N-(pyridin-4-yl)indolizine-1-carboxamide hydrochloride]	25.3 nM	–
5.1 nM	–	C[C@@H]1Cc2ccccc2CN1C(=O)c1cc2c(cc1-c1cc(C(=O)N(c3ccncc3)c3ccc(O)cc3)c3n1CCCC3)OCO2 [Example 42, N-(4-Hydroxyphenyl)-3-(6-{[(3R)-3-methyl-3,4-dihydroisoquinolin-2(1H)-yl]carbonyl}-1,3-benzodioxol-5-yl)-N-(pyridin-4-yl)-5,6,7,8-tetrahydro-indolizine-1-carboxamide hydrochloride]	57.6 nM	–
5.5 nM	–	C[C@@H]1Cc2ccccc2CN1C(=O)c1cc2c(cc1-c1cc(C(=O)N(c3ccc(O)cc3)c3cncc(F)c3)c3ccccn13)OCO2 [Example 55, N-(5-Fluoropyridin-3-yl)-N-(4-hydroxyphenyl)-3-(6-{[(3R)-3-methyl-3,4-dihydroisoquinolin-2(1H)-yl]carbonyl}-1,3-benzodioxol-5-yl)indolizine-1-carboxamide]	22.8 nM	–
8.8 nM	–	COc1ccc(C(=O)N2Cc3ccccc3C[C@H]2CCN2CCOCC2)c(-c2cc(C(=O)N(c3ccccc3)c3ccc(O)cc3)c3n2CCCC3)c1 [Example 28, N-(4-Hydroxyphenyl)-3-(5-methoxy-2-{[(3S)-3-[2-(morpholin-4-yl)ethyl]-3,4-dihydroisoquinolin-2(1H)-yl]carbonyl}phenyl)-N-phenyl-5,6,7,8-tetrahydro-indolizine-1-carboxamide hydrochloride]	112 nM	–
5.8 nM	–	O=C(c1cc(-c2cc3c(cc2C(=O)N2Cc4ccccc4C[C@H]2CCN2CCOCC2)OCO3)n2c1CCCC2)N(c1ccccc1)c1ccc(O)cc1 [Example 13, N-(4-Hydroxyphenyl)-3-(6-{[(3S)-3-[2-(morpholin-4-yl)ethyl]-3,4-dihydroisoquinolin-2(1H)-yl]carbonyl}-1,3-benzodioxol-5-yl)-N-phenyl-5,6,7,8-tetrahydroindolizine-1-carboxamide hydrochloride]	33.6 nM	–
299 nM	–	CC(C)N(C(=O)c1cc(-c2cc3c(cc2C(=O)N2Cc4ccccc4C[C@H]2C)OCO3)n2c1CNCC2)c1ccc(O)cc1 [Example 80, N-(4-Hydroxyphenyl)-6-(6-{[(3R)-3-methyl-3,4-dihydroisoquinolin-2(1H)-yl]carbonyl}-1,3-benzodioxol-5-yl)-N-(propan-2-yl)-1,2,3,4-tetrahydro-pyrrolo[1,2-a]pyrazine-8-carboxamide]	1880 nM	–
4.1 nM	–	C[C@@H]1Cc2ccccc2CN1C(=O)c1cc2c(cc1-c1cc(C(=O)N(c3ccc(O)cc3)c3ccncc3F)c3ccccn13)OCO2 [Example 46, N-(3-Fluoropyridin-4-yl)-N-(4-hydroxyphenyl)-3-(6-{[(3R)-3-methyl-3,4-dihydroisoquinolin-2(1H)-yl]carbonyl}-1,3-benzodioxol-5-yl)indolizine-1-carboxamide hydrochloride]	27.9 nM	–
83.6 nM	–	CCN(C(=O)c1cc(-c2cc3c(cc2C(=O)N2Cc4ccccc4C[C@H]2C)OCO3)n2c1CNCC2)c1ccc(O)cc1 [Example 73, N-Ethyl-N-(4-hydroxyphenyl)-6-(6-{[(3R)-3-methyl-3,4-dihydroiso-quinolin-2(1H)-yl]carbonyl}-1,3-benzodioxol-5-yl)-1,2,3,4-tetrahydropyrrolo[1,2-a]-pyrazine-8-carboxamide]	1320 nM	–
41.5 nM	–	O=C(c1cc(-c2cc3c(cc2C(=O)N2Cc4ccccc4C[C@H]2CCN2CCCC(F)(F)C2)OCO3)n2c1CCCC2)N(c1ccccc1)c1ccc(O)cc1 [Example 41, 3-(6-{[(3S)-3-[2-(3,3-Difluoropiperidin-1-yl)ethyl]-3,4-dihydroiso-quinolin-2(1H)-yl]carbonyl}-1,3-benzodioxol-5-yl)-N-(4-hydroxyphenyl)-N-phenyl-5,6,7,8-tetrahydroindolizine-1-carboxamide hydrochloride]	294 nM	–
